Experimental data reported in patent publication US10647713B2 (Nimbus Lakshmi, Inc., priority 2016, dated 2020).

Molecular target: human TYK2 (JH2domain-pseudokinase) (Homo sapiens (Human), UniProt P29597)
Assay: TYK2 JH2 Domain Binding Assay (KINOMEscan, DiscoveRx)
Conditions: 11-point dilution, duplicate
Method in brief: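 Kd from duplicate 11-point 3-fold dilutions starting at 30,000 nM, fitted by Hill equation with slope fixed at −1. Compounds (final 0.9% DMSO) displace DNA-tagged HEK293-expressed TYK2 JH2 fusion (<0.1 nM) from ligand-coated beads over 1 h at room temperature; eluted kinase read by qPCR.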

Chain of human TYK2 (JH2domain-pseudokinase) (P29597 556-888): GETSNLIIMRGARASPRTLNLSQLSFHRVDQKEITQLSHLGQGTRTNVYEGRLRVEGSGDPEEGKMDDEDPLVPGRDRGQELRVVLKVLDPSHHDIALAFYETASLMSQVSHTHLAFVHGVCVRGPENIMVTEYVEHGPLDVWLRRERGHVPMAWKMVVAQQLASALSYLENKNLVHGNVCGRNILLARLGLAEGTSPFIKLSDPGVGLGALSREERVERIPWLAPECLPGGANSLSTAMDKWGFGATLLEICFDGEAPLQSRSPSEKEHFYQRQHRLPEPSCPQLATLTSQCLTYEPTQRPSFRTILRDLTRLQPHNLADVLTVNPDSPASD

## Cc1nc2c(Nc3ccc(C4CCC4)cc3S(C)(=O)=O)cc(NC(=O)[C@H]3CC3(F)F)nc2[nH]1 [I-412, (R)—N-(7-((4-cyclobutyl-2-(methylsulfonyl)phenyl)amino)-2-methyl-3H-imidazo[4,5-b]pyridin-5-yl)-2,2-difluorocyclopropane-1-carboxamide]
  Kd: > 10 nM

## Cc1nc2c(Nc3ccc(C4CCC4)cc3S(C)(=O)=O)cc(NC(=O)[C@H]3C[C@H]3F)nc2[nH]1 [I-413, (1R,2R)—N-(7-((4-cyclobutyl-2-(methylsulfonyl)phenyl)amino)-2-methyl-3H-imidazo[4,5-b]pyridin-5-yl)-2-fluorocyclopropane-1-carboxamide]
  Kd: 0.5 to 1 nM

## Cc1nc2c(Nc3ccc(C4CCC4)cc3S(C)(=O)=O)cc(NC(=O)[C@@H]3C[C@@H]3F)nc2[nH]1 [I-414, (1S,2S)—N-(7-((4-cyclobutyl-2-(methylsulfonyl)phenyl)amino)-2-methyl-3H-imidazo[4,5-b]pyridin-5-yl)-2-fluorocyclopropane-1-carboxamide]
  Kd: 0.1 to 0.5 nM

## Cc1nc(-c2ccc(Nc3cc(NC(=O)C4CC4)nc4[nH]c(C(F)F)nc34)c(S(C)(=O)=O)c2)sc1C [I-415, N-(2-(difluoromethyl)-7-((4-(4,5-dimethylthiazol-2-yl)-2-(methylsulfonyl)phenyl)amino)-3H-imidazo[4,5-b]pyridin-5-yl)cyclopropanecarboxamide]
  Kd: 1 to 10 nM

## Cc1cc(Nc2cc(Nc3ccc(C4CC4)cc3S(C)(=O)=O)c3nc(C(F)F)[nH]c3n2)nc(C)n1 [I-416, N7-(4-cyclopropyl-2-(methylsulfonyl)phenyl)-2-(difluoromethyl)-N5-(2,6-dimethylpyrimidin-4-yl)-3H-imidazo[4,5-b]pyridine-5,7-diamine]
  Kd: 0.1 to 0.5 nM

## Cc1ncc(Nc2cc(Nc3ccc(C4CC4)cc3S(C)(=O)=O)c3nc(C(F)F)[nH]c3n2)nc1C [I-417, N7-(4-cyclopropyl-2-(methylsulfonyl)phenyl)-2-(difluoromethyl)-N5-(5,6-dimethylpyrazin-2-yl)-3H-imidazo[4,5-b]pyridine-5,7-diamine]
  Kd: 1 to 10 nM

## Cc1ccc(-c2ccc(Nc3cc(NC(=O)C4CC4)nc4[nH]c(C(F)F)nc34)c(S(C)(=O)=O)c2)o1 [I-418, N-(2-(difluoromethyl)-7-((4-(5-methylfuran-2-yl)-2-(methylsulfonyl)phenyl)amino)-3H-imidazo[4,5-b]pyridin-5-yl)cyclopropanecarboxamide]
  Kd: 1 to 10 nM

## Cc1nc2c(Nc3ccc(-c4ccc(C)o4)cc3S(C)(=O)=O)cc(NC(=O)C3CC3)nc2[nH]1 [I-419, N-(2-methyl-7-((4-(5-methylfuran-2-yl)-2-(methylsulfonyl)phenyl)amino)-3H-imidazo[4,5-b]pyridin-5-yl)cyclopropanecarboxamide]
  Kd: 0.1 to 0.5 nM

## Cc1cc(-c2ccc(Nc3cc(NC(=O)C4CC4)nc4[nH]c(C(F)F)nc34)c(S(C)(=O)=O)c2)oc1C [I-420, N-(2-(difluoromethyl)-7-((4-(4,5-dimethylfuran-2-yl)-2-(methylsulfonyl)phenyl)amino)-3H-imidazo[4,5-b]pyridin-5-yl)cyclopropanecarboxamide]
  Kd: 1 to 10 nM

## Cc1nc2c(Nc3ccc(-c4cc(C)c(C)o4)cc3S(C)(=O)=O)cc(NC(=O)C3CC3)nc2[nH]1 [I-421, N-(7-((4-(4,5-dimethylfuran-2-yl)-2-(methylsulfonyl)phenyl)amino)-2-methyl-3H-imidazo[4,5-b]pyridin-5-yl)cyclopropanecarboxamide]
  Kd: 0.1 to 0.5 nM

## Cc1nc2c(Nc3ccc([C@H]4CCCO4)cc3S(C)(=O)=O)cc(NC(=O)[C@@H]3CC3(F)F)nc2[nH]1 [I-422, (S)-2,2-difluoro-N-(2-methyl-7-((2-(methylsulfonyl)-4-((R)-tetrahydrofuran-2-yl)phenyl)amino)-3H-imidazo[4,5-b]pyridin-5-yl)cyclopropane-1-carboxamide]
  Kd: 0.5 to 1 nM

## Cc1nc2c(Nc3ccc([C@H]4CCCO4)cc3S(C)(=O)=O)cc(NC(=O)[C@H]3CC3(F)F)nc2[nH]1 [I-423, (R)-2,2-difluoro-N-(2-methyl-7-((2-(methylsulfonyl)-4-((R)-tetrahydrofuran-2-yl)phenyl)amino)-3H-imidazo[4,5-b]pyridin-5-yl)cyclopropane-1-carboxamide]
  Kd: 1 to 10 nM

## CS(=O)(=O)c1cc([C@@H]2CCCO2)ccc1Nc1cc(NC(=O)C2CC2)nc2[nH]c(C(F)F)nc12 [I-424, (S)—N-(2-(difluoromethyl)-7-((2-(methylsulfonyl)-4-(tetrahydrofuran-2-yl)phenyl)amino)-3H-imidazo[4,5-b]pyridin-5-yl)cyclopropanecarboxamide]
  Kd: < 0.1 nM

## CS(=O)(=O)c1cc([C@H]2CCCO2)ccc1Nc1cc(NC(=O)C2CC2)nc2[nH]c(C(F)F)nc12 [I-425, (R)—N-(2-(difluoromethyl)-7-((2-(methylsulfonyl)-4-(tetrahydrofuran-2-yl)phenyl)amino)-3H-imidazo[4,5-b]pyridin-5-yl)cyclopropanecarboxamide]
  Kd: 0.1 to 0.5 nM

## Cc1nc2c(Nc3ccc([C@@H]4CCCO4)cc3S(C)(=O)=O)cc(NC(=O)[C@@H]3CC3(F)F)nc2[nH]1 [I-426, (S)-2,2-difluoro-N-(2-methyl-7-((2-(methylsulfonyl)-4-((S)-tetrahydrofuran-2-yl)phenyl)amino)-3H-imidazo[4,5-b]pyridin-5-yl)cyclopropane-1-carboxamide]
  Kd: 0.1 to 0.5 nM

## Cc1nc2c(Nc3ccc([C@@H]4CCCO4)cc3S(C)(=O)=O)cc(NC(=O)[C@H]3CC3(F)F)nc2[nH]1 [I-427, (R)-2,2-difluoro-N-(2-methyl-7-((2-(methylsulfonyl)-4-((S)-tetrahydrofuran-2-yl)phenyl)amino)-3H-imidazo[4,5-b]pyridin-5-yl)cyclopropane-1-carboxamide]
  Kd: 0.1 to 0.5 nM

## CC1(C)COC(c2ccc(Nc3cc(NC(=O)[C@@H]4C[C@@H]4F)nc4[nH]c(C(F)F)nc34)c(S(C)(=O)=O)c2)=N1 [I-428, (1S,2S)—N-(2-(difluoromethyl)-7-((4-(4,4-dimethyl-4,5-dihydrooxazol-2-yl)-2-(methylsulfonyl)phenyl)amino)-3H-imidazo[4,5-b]pyridin-5-yl)-2-fluorocyclopropane-1-carboxamide]
  Kd: 1 to 10 nM

## Cn1ccc(-c2ccc(Nc3cc(NC(=O)C4CC4)nc4[nH]c(C(F)F)nc34)c(P(C)(C)=O)c2)n1 [I-429, N-(2-(difluoromethyl)-7-((2-(dimethylphosphoryl)-4-(1-methyl-1H-pyrazol-3-yl)phenyl)amino)-3H-imidazo[4,5-b]pyridin-5-yl)cyclopropanecarboxamide]
  Kd: < 0.1 nM

## Cc1nc2c(Nc3ccc(-c4ccn(C)n4)cc3P(C)(C)=O)cc(NC(=O)C3CC3)nc2[nH]1 [I-430, N-(7-((2-(dimethylphosphoryl)-4-(1-methyl-1H-pyrazol-3-yl)phenyl)amino)-2-methyl-3H-imidazo[4,5-b]pyridin-5-yl)cyclopropanecarboxamide]
  Kd: 0.1 to 0.5 nM

## Cc1nc2c(Nc3ccc(C4CCOCC4)cc3P(C)(C)=O)cc(NC(=O)C3CC3)nc2[nH]1 [I-431, N-(7-((2-(dimethylphosphoryl)-4-(tetrahydro-2H-pyran-4-yl)phenyl)amino)-2-methyl-3H-imidazo[4,5-b]pyridin-5-yl)cyclopropanecarboxamide]
  Kd: 0.5 to 1 nM

## CS(=O)(=O)c1cc(C2CCC2)ccc1Nc1cc(NC(=O)[C@H]2C[C@H]2F)nc2[nH]c(C(F)F)nc12 [I-432, (1R,2R)—N-(7-((4-cyclobutyl-2-(methylsulfonyl)phenyl)amino)-2-(difluoromethyl)-3H-imidazo[4,5-b]pyridin-5-yl)-2-fluorocyclopropane-1-carboxamide]
  Kd: 1 to 10 nM

## CS(=O)(=O)c1cc(C2CCC2)ccc1Nc1cc(NC(=O)[C@@H]2C[C@@H]2F)nc2[nH]c(C(F)F)nc12 [I-433, (1S, 2S)—N-(7-((4-cyclobutyl-2-(methylsulfonyl)phenyl)amino)-2-(difluoromethyl)-3H-imidazo[4,5-b]pyridin-5-yl)-2-fluorocyclopropane-1-carboxamide]
  Kd: 0.1 to 0.5 nM

## Cc1cc(Nc2cc(Nc3ccc(C4CC4)cc3S(C)(=O)=O)c3nc(C)[nH]c3n2)nc(C)n1 [I-434, N7-(4-cyclopropyl-2-(methylsulfonyl)phenyl)-N5-(2,6-dimethylpyrimidin-4-yl)-2-methyl-3H-imidazo[4,5-b]pyridine-5,7-diamine]
  Kd: 0.1 to 0.5 nM

## Cc1nc2c(Nc3ccc(C4CC4)cc3S(C)(=O)=O)cc(Nc3cnc(C)c(C)n3)nc2[nH]1 [I-435, N7-(4-cyclopropyl-2-(methylsulfonyl)phenyl)-N5-(5,6-dimethylpyrazin-2-yl)-2-methyl-3H-imidazo[4,5-b]pyridine-5,7-diamine]
  Kd: 0.1 to 0.5 nM

## CS(=O)(=O)c1cc(C2CC2)ccc1Nc1cc(Nc2cc3n(n2)CCOC3)nc2[nH]c(C(F)F)nc12 [I-436, N7-(4-cyclopropyl-2-(methylsulfonyl)phenyl)-2-(difluoromethyl)-N5-(6,7-dihydro-4H-pyrazolo[5,1-c][1,4]oxazin-2-yl)-3H-imidazo[4,5-b]pyridine-5,7-diamine]
  Kd: 0.1 to 0.5 nM

## Cc1nc2c(Nc3ccc(C4CC4)cc3S(C)(=O)=O)cc(Nc3cc4n(n3)CCOC4)nc2[nH]1 [I-437, N7-(4-cyclopropyl-2-(methylsulfonyl)phenyl)-N5-(6,7-dihydro-4H-pyrazolo[5,1-c][1,4]oxazin-2-yl)-2-methyl-3H-imidazo[4,5-b]pyridine-5,7-diamine]
  Kd: < 0.1 nM

## CS(=O)(=O)c1cc([C@@H]2CCCOC2)ccc1Nc1cc(NC(=O)[C@@H]2CC2(F)F)nc2[nH]c(C(F)F)nc12 [I-438, (S)—N-(2-(difluoromethyl)-7-((2-(methylsulfonyl)-4-((S)-tetrahydro-2H-pyran-3-yl)phenyl)amino)-3H-imidazo[4,5-b]pyridin-5-yl)-2,2-difluorocyclopropane-1-carboxamide]
  Kd: 1 to 10 nM

## CS(=O)(=O)c1cc([C@@H]2CCCOC2)ccc1Nc1cc(NC(=O)[C@H]2CC2(F)F)nc2[nH]c(C(F)F)nc12 [I-439, (R)—N-(2-(difluoromethyl)-7-((2-(methylsulfonyl)-4-((S)-tetrahydro-2H-pyran-3-yl)phenyl)amino)-3H-imidazo[4,5-b]pyridin-5-yl)-2,2-difluorocyclopropane-1-carboxamide]
  Kd: 1 to 10 nM
